Measured values published in paper PMC7503713, “GANT61 Reduces Hedgehog Molecule (GLI1) Expression and Promotes Apoptosis in Metastatic Oral Squamous Cell Carcinoma Cells” (International Journal of Molecular Sciences, 2020).

Legend:
[1] = tested on: Gli1 protein; assay: Western blot of HH pathway proteins in HSC3 cells, Gli1; type: cell-based, human; conditions: 24 h
Description: (§1) After culturing, HSC3 cells were washed with PBS and denatured by using cell lysis buffer containing 50 mM Tris-HCl (pH 7.4), 1% Triton X-100, 150 mM NaCl, 0.5 mM EGTA, 0.5 EDTA mM, and an anti-protease cocktail (Complete Pro-inhibitor Cocktail Tablets, Roche, Basel, Switzerland). Protein extracts (50 μg) were separated by SDS-PAGE and transferred to Hybond-C Extra (GE Healthcare, Chicago, IL, USA) nitrocellulose membranes. The following antibodies were used in the Western blot assay: mouse […] against Sonic Hedgehog (1:500, Clone 5 H4, Cat. number NBP2-22126, Novus Biologicals, Centennial, CO, USA), rabbit polyclonal against Gli1 (1:500, Novus Biologicals, Cat. number NB600-600), rabbit polyclonal against Patched 1 (1:500, Novus Biologicals, Cat.number NB200-118), and rabbit polyclonal against Smoothened (1:1000, Cat. number AB72130, Abcam, Cambridge, MA, USA). The secondary antibodies were anti-mouse IgG (1:10,000, Santa Cruz Biotechnology, Santa Cruz, CA, USA) and anti-rabbit IgG (1:10,000, GE Healthcare, Chicago, IL, USA). Signal detection was performed by using an ECL + Chemiluminescence Detection System (PerkinElmer, Villebon sur-Yvette, France). The antibody actin (1:10000, Cat. Number15 G5 A11/E2, Invitrogen, Carlsbad, CA, USA) was selected as an endogenous control for analysis of HH pathway component expression in HSC3 cells. […]

[2] = tested on: NOF; assay: alamarBlue cytotoxicity assay, normal oral fibroblasts NOF; type: cell-based; conditions: Homo sapiens, Fibroblast, 72 h of incubation
Description: For comparative analysis, primary cultures of normal oral fibroblasts (NOF) were isolated from fragments of healthy patient gingiva, using the same technique previously described for CAFs above, and then maintained in culture for up to 15 passages.
(§2) To assess the cytotoxicity of the GLI inhibitor GANT61 (Sigma-Aldrich, St. Louis, MO, USA) in tumor and non-tumor cell lines, an alamarBlue assay (Sigma-Aldrich Chemical Co, St. Louis, MO, USA) was performed after 72 h of exposure to the inhibitor, as described by Ahmed et al., 1994 [46]. Cells were distributed on 96-well plates at a density of 7 × 10^4 cells/mL for adhered cells, and 3 × 10^5 cells/mL for cells in suspension. All tested compounds were dissolved in DMSO, added to wells containing 100 µL of cells in complete medium, and then incubated for 72 h. […] Absorbance was measured at 570 nm (reduced) and 595 nm (oxidized) wavelengths, using a Spectramax 190 plate reader (Molecular Devices; Sunnyvale, CA, USA).
(§3) Statistical analyses were performed, using GraphPad Prism v. […] Data were analyzed according to distribution along the normal Gaussian curve. […] Differences between groups resulting from in vitro assays were evaluated by ANOVA (analysis of variance) testing, followed by the Student–Newman–Keuls test. […]

[3] = tested on: SCC15; assay: alamarBlue cytotoxicity assay, SCC15; type: cell-based, human; conditions: 72 h of incubation
Description: as §2, with “h. Eight concentrations of GANT61 (0.19 to 50 µg/mL), Doxorubicin (Laboratory IMA S.A.I.C., Buenos Aires, Argentina), and 5-Fluorouracil (5-FU, Sigma-Aldrich, St. Louis, MO, USA), both used as positive controls at concentrations ranging from 0.03 to 5 µg/mL, were added to respective wells.” for “h.”
as §3

[4] = tested on: APC02; assay: alamarBlue cytotoxicity assay, APC02; type: cell-based, human; conditions: 72 h of incubation
Description: as §2, with “h. Eight concentrations of GANT61 (0.19 to 50 µg/mL), Doxorubicin (Laboratory IMA S.A.I.C., Buenos Aires, Argentina), and 5-Fluorouracil (5-FU, Sigma-Aldrich, St. Louis, MO, USA), both used as positive controls at concentrations ranging from 0.03 to 5 µg/mL, were added to respective wells.” for “h.”
as §3

[5] = tested on: SHH protein; assay: Western blot of HH pathway proteins in HSC3 cells, SHH; type: cell-based, human; conditions: HSC3, 18 and 36 µM, 24 h
Description: as §1

[6] = tested on: AGP01; assay: alamarBlue cytotoxicity assay, AGP01; type: cell-based, human; conditions: 72 h of incubation
Description: as §2, with “h. Eight concentrations of GANT61 (0.19 to 50 µg/mL), Doxorubicin (Laboratory IMA S.A.I.C., Buenos Aires, Argentina), and 5-Fluorouracil (5-FU, Sigma-Aldrich, St. Louis, MO, USA), both used as positive controls at concentrations ranging from 0.03 to 5 µg/mL, were added to respective wells.” for “h.”
as §3

[7] = tested on: GLI3 mRNA; assay: qPCR of HH pathway gene expression in HSC3 cells, GLI3; type: cell-based, human; conditions: HSC3, 18 and 36 µM, 12 h, not significant
Description: For total RNA isolation, HSC3 cells were plated on 6-well plates, at a density of 0.7 × 10^5 cells/mL (5 mL/well volume), and incubated overnight, followed by treatment with the GLI inhibitor for 12 h at both concentrations (18 and 36 µM).
All experiments were carried out under DNAse/RNAse-free conditions. Silica microcolumns were used for RNA extraction, using an RNeasy Plus Mini Kit (QIAGEN, Hilden, Germany). Extracted RNA was analyzed for quantity and purity, using a NanoDrop®® 1000 spectrophotometer (Thermo Fisher Scientific, Waltham, MA, USA).
Reverse transcription was performed by using Superscript VILO™ transcriptase enzyme (Invitrogen, Carlsbad, CA, USA). The cDNA samples were stored at −20 °C, until the time of use.
HH pathway component expression was evaluated in cells treated or not with GANT61 by qPCR, using TaqMan Gene Expression Assays^TM inventoried for the PTCH1 (Hs00181117_m1), GLI1 (Hs01110766_m1), GLI2 (Hs01119974_m1), and GLI3 (Hs00609233_m1) genes, as well as for B2 M (Hs99999907_m1). […]
Following amplification and dissociation runs, quantification cycle (Cq) values were obtained by using the ViiA7^TM System Operational Program (AppliedByosistems, Foster City, CA, USA). For relative quantification, the comparative method (2−∆∆Cq) described by Livak and Schmittgen, 2001 was used. […]

[8] = tested on: HL60; assay: alamarBlue cytotoxicity assay, HL60; type: cell-based, human; conditions: 72 h of incubation
Description: as §2, with “h. Eight concentrations of GANT61 (0.19 to 50 µg/mL), Doxorubicin (Laboratory IMA S.A.I.C., Buenos Aires, Argentina), and 5-Fluorouracil (5-FU, Sigma-Aldrich, St. Louis, MO, USA), both used as positive controls at concentrations ranging from 0.03 to 5 µg/mL, were added to respective wells.” for “h.”
as §3

Structure (SMILES) | Gli1 protein levels ([1]; HSC3, 17 µM) | IC50 [2] [µM] | IC50 [3] [µM] | IC50 [4] [µM] | SHH protein expression [5] | Gli1 protein expression ([1]; HSC3, 18 and 36 µM) | IC50 [6] [µM] | mRNA expression of GLI3 [7] | IC50 [8] [µM]
O=c1[nH]cc(F)c(=O)[nH]1 [5-FU, 5-fluorouracil] | reduce Gli1 protein levels | 39.6 | – | – | – | – | – | – | –
CN(C)c1ccccc1CN1CCCN(Cc2ccccc2N(C)C)C1c1ccncc1 [GANT61] | – | – | 72.7 | > 116 | reduced levels | reduced levels | > 116 | Reductions in mRNA expression | > 116
